This assay deals with T1, CAT-1 (carnitine acyltransferase 1) (Rattus norvegicus, UniProt Q63704).
T1 construct: This preparation is used as the isolated mitochondrial preparation; from tissue; host or cells: rat heart (atria removed), isolated mitochondria
T1 sequence (Q63704 1-772): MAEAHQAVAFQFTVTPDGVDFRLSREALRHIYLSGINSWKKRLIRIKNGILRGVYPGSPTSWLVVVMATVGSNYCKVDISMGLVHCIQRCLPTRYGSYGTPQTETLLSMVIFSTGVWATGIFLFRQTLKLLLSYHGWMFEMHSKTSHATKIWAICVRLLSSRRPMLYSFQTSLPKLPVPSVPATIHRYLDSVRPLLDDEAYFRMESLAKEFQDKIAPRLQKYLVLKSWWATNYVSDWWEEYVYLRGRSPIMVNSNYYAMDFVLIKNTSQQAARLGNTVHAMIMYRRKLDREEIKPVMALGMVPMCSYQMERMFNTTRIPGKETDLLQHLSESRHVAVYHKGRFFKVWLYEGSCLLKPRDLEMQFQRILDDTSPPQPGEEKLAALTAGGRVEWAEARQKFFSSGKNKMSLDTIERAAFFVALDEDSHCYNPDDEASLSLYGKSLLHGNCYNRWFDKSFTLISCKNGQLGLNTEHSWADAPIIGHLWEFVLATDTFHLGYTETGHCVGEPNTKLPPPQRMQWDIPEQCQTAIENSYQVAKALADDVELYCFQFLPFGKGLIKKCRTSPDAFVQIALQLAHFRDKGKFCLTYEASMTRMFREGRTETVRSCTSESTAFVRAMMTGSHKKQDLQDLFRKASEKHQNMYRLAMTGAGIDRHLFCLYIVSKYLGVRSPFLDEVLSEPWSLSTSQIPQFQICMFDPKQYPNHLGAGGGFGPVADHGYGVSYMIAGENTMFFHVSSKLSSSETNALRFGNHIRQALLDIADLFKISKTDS
Nature of the assay: Primary Screen--Inhibition of CAT-1 in isolated mitochondria. The arrangement: inhibition: dose or concentration left out as unconfirmed. The class given is biochemical.

[1] abbreviates: rat heart mitochondria, reduction of palmitoyl carnitine formation by 50%, read-out: Primary Screen IC50.

As a reminder, the IC50 is the concentration needed to halve the response being measured. As usually defined, the inhibition is how much of the control response was suppressed.

Read-outs that look alike come from different tables or passages of the source.

With `O=C(C(=O)N(CCO)CCO)c1ccc(OCCOc2ccc3ccccc3c2)cc1` [Example 163, N,N-bis(2-hydroxyethyl)-4-[[2-(2-naphthalenyloxy)ethyl]oxy]-alpha-oxobenzeneacetamide], under setting [1], the IC50 came out at 3500 nM. `O=C(O)C(=O)c1ccc(OCCOCCOc2ccccc2)cc1` [Example 77, 4-[[2-[[2-(phenoxy)ethyl]oxy]ethyl]oxy]-alpha-oxobenzeneacetic acid]: the IC50 under setting [1] worked out at 2000 nM. For the compound `O=C(O)C(=O)c1ccc(OCCOc2ccc3cc4ccccc4cc3c2)cc1` [Example 108, 4-[[2-(2-anthracenyloxy)ethyl]oxy]-alpha-oxobenzeneacetic acid], under setting [1], the concentration for half-maximal inhibition (IC50) worked out at 200 nM. For `O=C(O)C(=O)c1ccc(OC/C=C\c2ccccc2)cc1` [Example 33, (Z)-alpha-oxo-4-[(3-phenyl-2-propenyl)oxy]benzeneacetic acid], the half-maximal inhibitory concentration (IC50) under setting [1] was found to be 1000 nM. With `O=C(O)C(=O)c1ccc(OCCOc2ccc3cccnc3c2)cc1` [Example 127, alpha-oxo-4-[[2-(7-quinolyloxy)ethyl]oxy]benzeneacetic acid monohydrate], under setting [1], the IC50 amounted to 260 nM. In the case of `O=C(O)C(=O)c1ccc(OCCCNC(=O)c2ccc3ccccc3c2)cc1` [Example 140, 4-[[3-(2-naphthoylamino)propyl]oxy]-alpha-oxobenzeneacetic acid], under setting [1], the IC50 came out at 150 nM. Same read-out and setting: as for `O=C(O)C(=O)c1ccc(OCCOc2cc3ccccc3cc2O)cc1` [Example 121, 4-[[2-(3-hydroxy-2-naphthalenyloxy)ethyl]oxy]-alpha-oxobenzeneacetic acid], the figure is 300 nM. The compound `COc1cc(OCCOc2ccc3ccccc3c2)cc(OC)c1C(=O)C(=O)O` [Example 195, 2,6-dimethoxy-4-[2-(2-naphthalenyloxy)ethoxy]-alpha-oxobenzeneacetic acid] had an inhibition of 24%. For the compound `O=C(O)C(=O)c1ccc(OCCOc2ccc([N+](=O)[O-])cc2)cc1` [Example 47, 4-[[2-(4-nitrophenoxy)ethyl]oxy]-alpha-oxobenzeneacetic acid], under setting [1], the IC50 worked out at 3000 nM. In the case of `O=C(O)C(=O)c1ccc(OCCOc2ccnc3ccccc23)cc1` [Example 131, alpha-oxo-4-[[2-(4-quinolyloxy)ethyl]oxy]benzeneacetic acid], the half-inhibitory concentration (IC50) under setting [1] stood at 960 nM.

`CC(C)(C)c1cc(C(=O)CCCCOc2ccc(C(=O)C(=O)O)cc2)cc(C(C)(C)C)c1O` [Example 266, 4-[5-[3,5-bis(1,1-dimethylethyl)-4-hydroxyphenyl]-5-oxopentyloxy]-alpha-oxobenzeneacetic acid]: testing at 10 µM (@ 10 μM) gave an inhibition of 48%. With `CC1(C)OCC(COC(=O)C(=O)c2ccc(OCCOc3ccc4ccccc4c3)cc2)O1` (racemic) [Example 169, rac.-4-[[2-(2-naphthalenyloxy)ethyl]oxy]-alpha-oxobenzeneacetic acid (2,2-dimethyl-1,3-dioxolan-4-yl)methyl ester], the IC50 under setting [1] worked out at 3500 nM.

On to `O=C(O)C(=O)c1ccc(OC/C=C/c2ccc(F)cc2)cc1` [Example 29, (E)-4-[[3-(4-fluorophenyl)-2-propenyl]oxy]-alpha-oxobenzeneacetic acid], for which the IC50 under setting [1] turned out to be 250 nM.

For the compound `CC(=O)c1ccc(OCCCOc2ccc(C(=O)C(=O)O)cc2)cc1O` [Example 273, 4-[3-(4-acetyl-3-hydroxyphenoxy)propoxy]-alpha-oxobenzeneacetic acid], under setting [1], the IC50 stood at 730 nM. The compound `Cc1nnc2n1-c1sc(C#CCOc3ccc(C(=O)C(=O)O)cc3)cc1C(c1ccccc1Cl)=NC2` [Example 294, 4-[3-[4-(2-chlorophenyl)-9-methyl-6H-thieno[3,2-f][1,2,4]triazolo[4,3-a][1,4]diazepin-2-yl]-2-propynyloxy]-alpha-oxobenzeneacetic acid] registered an IC50 of 300 nM. Turning to `O=C(O)C(=O)c1ccc(OCCOc2ccc3c(c2)CCCC3)cc1` [Example 112, alpha-oxo-4-[[2-(5,6,7,8-tetrahydro-2-naphthalenyloxy)ethyl]oxy]benzeneacetic acid], the concentration for half-maximal inhibition (IC50) under setting [1] was determined as 200 nM.

For the origin of these results see patent US5344843A, “Cat-1 inhibitors, pharmaceutical compositions and methods of use” (Hoffman-La Roche Inc., priority 1992, dated 1994).
